Source: patent publication US12466839B2, “Allosteric AKT inhibitors for use in the treatment of Hereditary Hemorrhagic Telangiectasia” (VADERIS THERAPEUTICS AG, priority 2020, dated 2025)

Key:
CGRP1 = biological target: T1, CGRP1 (Homo sapiens, UniProt O60894+Q16602); test: Millipore Drug Discovery Safety and Liability Panel; type: cell-based
T1 construct: purchased Millipore

GPR14 = biological target: T2, GPR14 (Homo sapiens, UniProt Q9UKP6); test: as above; type: cell-based
T2 construct: purchased Millipore
T2 sequence (Q9UKP6 whole entry, species assumed): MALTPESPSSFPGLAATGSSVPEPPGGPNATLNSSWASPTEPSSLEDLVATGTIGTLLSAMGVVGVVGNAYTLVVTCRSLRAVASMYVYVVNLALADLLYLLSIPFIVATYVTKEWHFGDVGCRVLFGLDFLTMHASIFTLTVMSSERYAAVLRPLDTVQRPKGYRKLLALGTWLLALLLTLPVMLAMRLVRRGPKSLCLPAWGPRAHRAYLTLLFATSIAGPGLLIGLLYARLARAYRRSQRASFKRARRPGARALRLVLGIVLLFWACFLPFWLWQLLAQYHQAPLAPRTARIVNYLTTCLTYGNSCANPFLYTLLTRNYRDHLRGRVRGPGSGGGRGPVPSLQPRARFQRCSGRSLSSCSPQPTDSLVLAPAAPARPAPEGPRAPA

ADRB1 = biological target: T3, ADRB1 (Homo sapiens, UniProt P08588); test: as above; type: cell-based
T3 construct: purchased Millipore
T3 sequence (P08588 whole entry): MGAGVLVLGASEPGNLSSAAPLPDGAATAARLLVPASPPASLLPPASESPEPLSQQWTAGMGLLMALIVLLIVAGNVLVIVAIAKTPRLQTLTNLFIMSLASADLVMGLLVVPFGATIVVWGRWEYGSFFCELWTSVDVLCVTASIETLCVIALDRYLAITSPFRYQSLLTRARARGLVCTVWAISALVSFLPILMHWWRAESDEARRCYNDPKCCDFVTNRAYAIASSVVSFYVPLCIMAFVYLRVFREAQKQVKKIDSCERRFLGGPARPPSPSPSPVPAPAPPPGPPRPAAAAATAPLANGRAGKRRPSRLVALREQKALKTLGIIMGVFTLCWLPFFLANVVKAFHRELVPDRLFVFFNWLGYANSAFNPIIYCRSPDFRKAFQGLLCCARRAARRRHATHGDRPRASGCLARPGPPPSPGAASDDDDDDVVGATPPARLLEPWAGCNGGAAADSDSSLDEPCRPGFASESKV

full length AKT2 = full length AKT2 (Homo sapiens, UniProt P31751); test: Biochemical kinase assay
[1] = test system: AVM formation in Eng-iKO mice; test: Prevention of AVM formation in Eng-iKO mice (retinal vascular network); type: in vivo, mouse
Protocol: The Eng Flox/flox; cdh5-CreERT2 were injected with tamoxifen (50 μg) at P2 to […] once at P3, P4, P5 and P6. The same volume of vehicle was injected serving as control animals. Mice were then euthanized at P7 and retinas processed for immunofluorescence staining as described (Lebrin et al., as above).
The same volume of vehicle was injected serving as control animals. Mice were then euthanized at P7 and retinas processed for immunofluorescence staining as described (Lebrin et al., as above).
For the retinal vascular network, quantification of the number of AV shunts per mouse was done manually. […] A custom own-lab made macro allowed automatic processing of the images, using the same processing and quantification parameters. Briefly, the brightness of the images was enhanced by modifying the pixel extreme values, which depends on the specific image histogram content. A Gaussian filter was applied to reduce the intensity in homogeneities. The filter order depended on the image resolution. Next, the threshold step was computed, based on a global threshold technique such as Otsu's method or Li's method, resulting in binary image. A median filter was then applied to eliminate potential local irregularities, which could cause false branching point detection. From the binary images, the vascular density was quantified (calculated as the ratio of pixels associated with the vessels divided by the total number of pixels in the image). For the other parameters, a skeleton of the images was first computed using ImageJ, then the total vascular length was quantified using the Measure Skeleton Length plug-in from ImageJ. The number of branch points was extracted from the Analyze Skeleton plug-in of ImageJ. All results were transferred to Microsoft Office Excel software and automatically rearranged using a lab custom-made program. As all images generated at each step of the processing were saved, a visual control was made to ensure that there were no aberrant results.
Statistical analysis was performed with Prism 7 software (GraphPad). For most of the experiments, 1-way ANOVA was used for multiple comparisons. Results are expressed as mean±SEM. For post hoc pairwise, the Dunnett's test was used. A value of *P<0.05, **P<0.01, ***P<0.001 or ****P<0.0001 denotes statistical significance. An in-group variation of around 15% in parameters related to blood vessel architecture changes has been previously observed by the inventors, therefore a difference between controls and mutant mice of around 20-30% was anticipated. It was therefore expected that a group of 8 mice per condition would reveal statistical differences.
Eyes were fixed in 4% paraformaldehyde (PFA) in PBS at room temperature for 10 min, retinas were dissected, post-fixed in 4% PFA in PBS at 4° C. overnight then processed for immunostaining. Retinas were permeabilized in PBS, 1% BSA and 0.5% Triton X-100 at 4° C. overnight, rinsed in PBS, washed twice in PBlec (PBS, pH 6.8, 1% Triton-X-100, 0.1 mM CaCl2, 0.1 mM MgCl2, 0.1 mM MnCl2), and then incubated in biotinylated Griffonia simplicifolia lectin (isolectin B4) (B-1205, Vector Laboratories, 1:50) in PBlec at 4° C. overnight. After 5 washes in PBS, samples were incubated with streptavidin Cy-3 (PA43001, Sigma-Aldrich, 1:100) and with a-SMA (clone 1A4) (F3777, Sigma-Aldrich) conjugated with FITC diluted in PBS, 0.5% BSA, and 0.25% X-100 at 4° C. for 2 h. After washing, flat whole-mount retinas were mounted in DAKO medium (S3023, Dako). Complete high-resolution 3-dimensional rendering of whole-mount retinas was acquired using Laser Scanning Microscope SP5 or SP8 (Leica).

Y2 = biological target: T4, Y2 (Homo sapiens, UniProt P49146); test: Millipore Drug Discovery Safety and Liability Panel; type: cell-based
T4 construct: Millipore
T4 sequence (P49146 whole entry): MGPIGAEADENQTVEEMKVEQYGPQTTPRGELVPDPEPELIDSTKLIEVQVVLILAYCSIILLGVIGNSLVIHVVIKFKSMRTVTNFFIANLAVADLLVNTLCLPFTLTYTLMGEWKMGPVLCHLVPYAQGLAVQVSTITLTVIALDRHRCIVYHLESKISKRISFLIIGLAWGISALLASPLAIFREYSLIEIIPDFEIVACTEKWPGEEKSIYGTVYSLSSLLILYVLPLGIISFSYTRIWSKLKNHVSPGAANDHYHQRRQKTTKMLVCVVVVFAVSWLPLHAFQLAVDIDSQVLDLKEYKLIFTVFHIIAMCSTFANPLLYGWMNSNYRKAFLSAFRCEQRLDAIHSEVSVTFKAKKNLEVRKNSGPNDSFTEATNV

D1 = biological target: T5, D1 (Homo sapiens, UniProt P21728); test: as above; type: cell-based
T5 construct: purchased Millipore
T5 sequence (P21728 whole entry): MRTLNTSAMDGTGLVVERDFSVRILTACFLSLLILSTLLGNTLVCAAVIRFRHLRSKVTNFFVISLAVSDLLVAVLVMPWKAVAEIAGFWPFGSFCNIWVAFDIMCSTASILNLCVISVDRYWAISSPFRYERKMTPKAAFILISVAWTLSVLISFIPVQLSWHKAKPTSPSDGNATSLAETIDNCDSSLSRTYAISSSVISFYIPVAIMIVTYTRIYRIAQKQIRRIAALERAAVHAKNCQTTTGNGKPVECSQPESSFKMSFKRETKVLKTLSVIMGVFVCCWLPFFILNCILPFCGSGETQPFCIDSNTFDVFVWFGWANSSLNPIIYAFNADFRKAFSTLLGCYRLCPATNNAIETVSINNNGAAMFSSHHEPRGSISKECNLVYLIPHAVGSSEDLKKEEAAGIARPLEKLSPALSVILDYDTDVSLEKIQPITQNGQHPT

M2 = biological target: T6, M2 (Homo sapiens, UniProt P08172); test: as above; type: cell-based
T6 construct: purchased Millipore
T6 sequence (P08172 whole entry): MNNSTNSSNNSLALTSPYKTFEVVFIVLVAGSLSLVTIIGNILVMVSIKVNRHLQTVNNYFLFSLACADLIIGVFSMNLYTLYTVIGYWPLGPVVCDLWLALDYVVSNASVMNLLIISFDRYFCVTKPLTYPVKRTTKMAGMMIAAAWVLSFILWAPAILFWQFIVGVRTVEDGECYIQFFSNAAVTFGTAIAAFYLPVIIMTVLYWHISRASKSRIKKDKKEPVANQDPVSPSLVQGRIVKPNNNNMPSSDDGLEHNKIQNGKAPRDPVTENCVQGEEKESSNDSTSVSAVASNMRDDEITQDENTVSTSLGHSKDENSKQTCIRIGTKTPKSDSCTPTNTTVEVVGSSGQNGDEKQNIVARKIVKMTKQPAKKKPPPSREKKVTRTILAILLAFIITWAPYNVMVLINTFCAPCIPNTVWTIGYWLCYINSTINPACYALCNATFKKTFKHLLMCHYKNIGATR

MC5 = biological target: T7, MC5 (Homo sapiens, UniProt P33032); test: as above; type: cell-based
T7 construct: purchased Millipore
T7 sequence (P33032 whole entry): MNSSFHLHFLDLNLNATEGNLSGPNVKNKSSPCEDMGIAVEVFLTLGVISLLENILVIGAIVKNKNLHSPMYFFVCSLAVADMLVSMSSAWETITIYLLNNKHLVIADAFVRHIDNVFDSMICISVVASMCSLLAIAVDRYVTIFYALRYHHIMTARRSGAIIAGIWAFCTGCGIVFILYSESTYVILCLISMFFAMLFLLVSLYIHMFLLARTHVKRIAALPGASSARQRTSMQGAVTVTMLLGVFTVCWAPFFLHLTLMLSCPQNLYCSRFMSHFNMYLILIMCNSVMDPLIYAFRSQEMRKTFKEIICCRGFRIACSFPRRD

Kv4.3 = Kv4.3 (Homo sapiens, UniProt Q9UK17); test: Cardiac ion channel profile; type: cell-based
NK1 = biological target: T8, NK1 (Homo sapiens, UniProt P25103); test: Millipore Drug Discovery Safety and Liability Panel; type: cell-based
T8 construct: purchased Millipore
T8 sequence (P25103 whole entry): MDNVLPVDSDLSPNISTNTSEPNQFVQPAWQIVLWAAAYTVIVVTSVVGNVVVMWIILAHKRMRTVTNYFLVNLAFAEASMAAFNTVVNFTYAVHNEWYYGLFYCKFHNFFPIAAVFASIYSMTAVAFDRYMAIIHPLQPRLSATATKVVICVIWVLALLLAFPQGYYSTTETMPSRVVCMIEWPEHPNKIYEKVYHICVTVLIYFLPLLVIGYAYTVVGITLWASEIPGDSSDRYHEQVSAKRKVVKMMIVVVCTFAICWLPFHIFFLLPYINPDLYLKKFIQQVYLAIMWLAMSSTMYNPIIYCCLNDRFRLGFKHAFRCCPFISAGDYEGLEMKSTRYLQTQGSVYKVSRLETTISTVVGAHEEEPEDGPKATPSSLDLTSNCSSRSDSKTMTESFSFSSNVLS

PAF = biological target: T9, PAF (Homo sapiens, UniProt P25105); test: as above; type: cell-based
T9 construct: Millipore
T9 sequence (P25105 whole entry): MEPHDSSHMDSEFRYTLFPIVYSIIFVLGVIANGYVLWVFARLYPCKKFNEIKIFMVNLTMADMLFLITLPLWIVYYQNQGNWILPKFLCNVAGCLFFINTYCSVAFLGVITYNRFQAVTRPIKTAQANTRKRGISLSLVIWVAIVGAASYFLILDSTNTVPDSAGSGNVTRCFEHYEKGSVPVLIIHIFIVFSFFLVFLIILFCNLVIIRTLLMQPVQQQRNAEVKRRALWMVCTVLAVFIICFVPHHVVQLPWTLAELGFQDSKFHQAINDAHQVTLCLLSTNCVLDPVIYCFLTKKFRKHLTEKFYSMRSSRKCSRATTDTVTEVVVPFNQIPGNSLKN

CysLT1 = biological target: T10, CysLT1 (Homo sapiens, UniProt Q9Y271); test: as above; type: cell-based
T10 construct: purchased Millipore
T10 sequence (Q9Y271 whole entry): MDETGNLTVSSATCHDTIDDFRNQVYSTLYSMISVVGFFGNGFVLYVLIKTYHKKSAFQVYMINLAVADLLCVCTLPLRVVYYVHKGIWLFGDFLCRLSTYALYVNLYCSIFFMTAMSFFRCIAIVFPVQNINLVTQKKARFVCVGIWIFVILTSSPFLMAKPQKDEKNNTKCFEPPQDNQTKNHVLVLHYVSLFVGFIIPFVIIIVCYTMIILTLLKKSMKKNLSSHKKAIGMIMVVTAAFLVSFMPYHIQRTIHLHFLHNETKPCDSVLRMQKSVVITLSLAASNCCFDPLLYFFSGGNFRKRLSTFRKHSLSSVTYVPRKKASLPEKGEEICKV

p38α = p38α (Homo sapiens, UniProt Q16539); test: Panel of 450 kinases and 10-point titration curve; type: biochemical
Chain of p38α (Q16539 whole entry): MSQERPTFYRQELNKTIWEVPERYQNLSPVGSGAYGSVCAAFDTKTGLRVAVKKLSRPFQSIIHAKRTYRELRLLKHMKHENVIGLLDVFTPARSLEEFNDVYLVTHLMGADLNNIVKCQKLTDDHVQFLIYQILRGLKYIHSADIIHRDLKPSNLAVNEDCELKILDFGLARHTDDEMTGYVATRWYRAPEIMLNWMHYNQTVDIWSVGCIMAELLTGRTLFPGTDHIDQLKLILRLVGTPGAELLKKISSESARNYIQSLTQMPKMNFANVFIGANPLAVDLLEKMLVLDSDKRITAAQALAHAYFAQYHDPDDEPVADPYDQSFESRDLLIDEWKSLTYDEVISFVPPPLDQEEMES

H2 = biological target: T11, H2 (Homo sapiens, UniProt P25021); test: Millipore Drug Discovery Safety and Liability Panel; type: cell-based
T11 construct: purchased Millipore
T11 sequence (P25021 whole entry): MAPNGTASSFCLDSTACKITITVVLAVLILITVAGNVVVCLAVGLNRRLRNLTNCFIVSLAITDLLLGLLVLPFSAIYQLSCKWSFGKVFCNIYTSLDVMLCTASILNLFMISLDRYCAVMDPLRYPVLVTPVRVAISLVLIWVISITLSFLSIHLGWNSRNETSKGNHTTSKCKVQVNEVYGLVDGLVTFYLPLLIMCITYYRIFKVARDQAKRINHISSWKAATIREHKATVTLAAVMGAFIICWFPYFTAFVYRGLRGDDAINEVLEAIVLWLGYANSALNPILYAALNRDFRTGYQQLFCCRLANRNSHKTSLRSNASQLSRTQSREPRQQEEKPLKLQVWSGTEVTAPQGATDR

[2] = read-out: ANTAGONIST mean % inhibition
[3] = read-out: AGONIST mean % increase in activity

T1 sequence (Q16602 23-461): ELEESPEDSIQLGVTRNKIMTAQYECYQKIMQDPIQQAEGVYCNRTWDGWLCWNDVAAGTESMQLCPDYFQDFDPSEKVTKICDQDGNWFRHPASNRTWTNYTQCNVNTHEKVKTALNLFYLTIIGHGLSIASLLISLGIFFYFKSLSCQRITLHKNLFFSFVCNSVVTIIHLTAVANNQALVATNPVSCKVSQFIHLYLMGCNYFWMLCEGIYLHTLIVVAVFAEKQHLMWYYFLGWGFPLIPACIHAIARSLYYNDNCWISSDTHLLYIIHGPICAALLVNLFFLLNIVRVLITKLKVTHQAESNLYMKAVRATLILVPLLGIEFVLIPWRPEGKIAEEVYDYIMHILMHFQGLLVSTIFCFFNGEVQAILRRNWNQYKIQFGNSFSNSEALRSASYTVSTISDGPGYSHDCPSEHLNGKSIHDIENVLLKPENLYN
T1 sequence (O60894 27-148 partner): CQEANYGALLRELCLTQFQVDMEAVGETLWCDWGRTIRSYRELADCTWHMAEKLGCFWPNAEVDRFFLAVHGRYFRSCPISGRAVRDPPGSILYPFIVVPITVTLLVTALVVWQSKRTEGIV

Question: With `CCN1C(=O)COc2nc(-c3ccc(C4(N)CC(O)C4)cc3)c(-c3ccccc3)cc21.O=C(O)C(O)C(O)C(=O)O` [VAD044, 6-(4-(1-amino-3-hydroxycyclobutyl)phenyl)-1-ethyl-7-phenyl-1H-pyrido[2,3-b][1,4]oxazin-2(3H)-one L-tartrate] as the compound, how does the activation at 10 µM (CGRP1; CGRP1, 10 μM, read-out: AGONIST mean % increase in activity) read?
Answer: Its activation at 10 µM is -0.1%.

Question: And the inhibition at 10 µM (CGRP1; [2])?
Answer: Its inhibition at 10 µM is -7.9%.

Question: And the activation at 10 µM (GPR14; [3])?
Answer: The activation at 10 µM was 29.5%.

Question: What about the inhibition at 10 µM (GPR14; [2]) of the same compound?
Answer: The inhibition at 10 µM was 52.9%.

Question: What about the activation at 10 µM (ADRB1; ADRB1, 10 μM, read-out: AGONIST mean % increase in activity) of the same compound?
Answer: Its activation at 10 µM is -0.1%.

Question: What about the inhibition at 10 µM (ADRB1; [2]) of the same compound?
Answer: Its inhibition at 10 µM is 4.2%.

Question: What about the IC50 (full length AKT2) of the same compound?
Answer: The IC50 was 95 nM.

Question: And the “prevention of AVM shunt formation” value ([1]; 2.5 mg·kg−1)?
Answer: The value was “fully prevent AVM shunt formation”.

Question: And the “density of the retinal vascular network” value ([1]; Eng-iKO mice)?
Answer: Its value is “normalize the density”.

Question: And the “number of branch points of the Eng-iKO vascular network” value ([1]; Eng-iKO mice)?
Answer: Its value is “slightly reducing”.

Question: What about the “radial expansion of the Eng-iKO vascular network” value ([1]; Eng-iKO mice) of the same compound?
Answer: The value was “slightly reducing”.

Question: And the “prevention of AV shunt formation” value ([1]; Eng-iKO mice, 1.25 mg·kg-1)?
Answer: The value was “not to be effective”.

Question: And the “prevention of AV shunt formation” value ([1]; Eng-iKO mice, 2.5 mg·kg-1 and above, at P3 and P5)?
Answer: The value was “efficiently prevented AV shunt formation”.

Question: And the minimal effective dose ([1]; HHT1 (Eng-iKO) mouse model)?
Answer: Its minimal effective dose is 2.5 mg/kg.

Question: What about the activation at 10 µM (Y2; Y2, 10 μM, read-out: AGONIST mean % increase in activity) of the same compound?
Answer: Its activation at 10 µM is -2.2%.

Question: And the inhibition at 10 µM (Y2; [2])?
Answer: The inhibition at 10 µM was -5.7%.

Question: And the activation at 10 µM (D1; D1, 10 μM, read-out: AGONIST mean % increase in activity)?
Answer: The activation at 10 µM was 1.5%.

Question: What about the inhibition at 10 µM (D1; [2]) of the same compound?
Answer: Its inhibition at 10 µM is 18.7%.

Question: And the activation at 10 µM (M2; [3])?
Answer: Its activation at 10 µM is 0%.

Question: And the inhibition at 10 µM (M2; [2])?
Answer: Its inhibition at 10 µM is 20.6%.

Question: And the activation at 10 µM (MC5; MC5, 10 μM, read-out: AGONIST mean % increase in activity)?
Answer: The activation at 10 µM was -0.2%.

Question: What about the inhibition at 10 µM (MC5; [2]) of the same compound?
Answer: The inhibition at 10 µM was 8.4%.

Question: What about the inhibition at 10 µM (Kv4.3) of the same compound?
Answer: The inhibition at 10 µM was under 25%.

Question: And the activation at 10 µM (NK1; NK1, 10 μM, read-out: AGONIST mean % increase in activity)?
Answer: The activation at 10 µM was -1.4%.

Question: What about the inhibition at 10 µM (NK1; [2]) of the same compound?
Answer: The inhibition at 10 µM was 2.4%.

Question: And the activation at 10 µM (PAF; [3])?
Answer: Its activation at 10 µM is -0.9%.

Question: And the inhibition at 10 µM (PAF; [2])?
Answer: The inhibition at 10 µM was 21%.

Question: What about the activation at 10 µM (CysLT1; CysLT1, 10 μM, read-out: AGONIST mean % increase in activity) of the same compound?
Answer: Its activation at 10 µM is -0.8%.

Question: What about the inhibition at 10 µM (CysLT1; [2]) of the same compound?
Answer: Its inhibition at 10 µM is 1.5%.

Question: And the inhibition at 10 µM (p38α; 10 μM)?
Answer: Its inhibition at 10 µM is 84%.

Question: And the IC50 (p38α; 10-point titration curve)?
Answer: The IC50 was over 10000 nM.

Question: And the activation at 10 µM (H2; H2, 10 μM, read-out: AGONIST mean % increase in activity)?
Answer: The activation at 10 µM was -0.2%.

Question: And the inhibition at 10 µM (H2; [2])?
Answer: The inhibition at 10 µM was -1.8%.
